Here are results for 30 molecules from PMC2964152 (Journal of medicinal chemistry, 2010).

Data set [1] has as its system three melanoma cell lines and four human prostate cancer cell lines. Description: In vitro growth inhibition, average of all seven cell lines. It counts as cell-based. The following applies: for IC50: read-out: average IC50, average of all seven cell lines, as given in the text.
Another data set has as its system Bovine brain tubulin. Description: In vitro microtubule polymerization assay. Format: biochemical. The following applies: 10 μM compound, absorbance at 340 nm, 15 min, 37°C.
For a further data set, the system named is MDA-MB-435. Description: In vitro growth inhibition, sensitive parent melanoma cell line. Format: cell-based, human. To be noted: read-out: IC50 ± SEM MDA-MB-435, n=3.
Data set [2] in a line: Aqueous solubility, miniaturized shake-flask method with LC-MS/MS. It counts as physicochemical.
Data set [3] can be described thus: Body weight during the in vivo efficacy study. The following applies: any of the treatment groups, during the experiment.

Structures can show the parent of a compound that is named as a salt.

For orientation: IC50 means the concentration at which inhibition is half-maximal. With “(2-(4-(Dimethylamino)phenyl)-1-(phenylsulfonyl)-1H-imidazol-4-yl)(3, 4, 5-trimethoxyphenyl) methanone [4ga]”, in data set [1], the IC50 was determined as 285 nM. `O=C(c1ccc(F)cc1)c1c[nH]c(-c2ccc(OCc3ccccc3)cc2)n1` [5jb, (2-(4-(Benzyloxy)phenyl)-1H-imidazol-4-yl)(4-fluorophenyl)methanone]: the “fold increase in activity compared with 5kb” value in data set [1] (from average IC50 values) is recorded as 440 fold. For the same molecule, the IC50 in data set [1] was determined as 75 nM.

With `COc1cc(-c2nc(C(=O)c3ccc(F)cc3)c[nH]2)cc(OC)c1OC` [5eb, (4-Fluorophenyl)(2-(3,4,5-trimethoxyphenyl)-1H-imidazol-4-yl)methanone], in data set [1], the IC50 is > 10000 nM. Regarding `COc1cc(C(=O)c2c[nH]c(-c3ccc(C)cc3)n2)cc(OC)c1OC` [5da, (2-(p-Tolyl)-1H-imidazol-4-yl)(3,4,5-trimethoxyphenyl)methanone], the “inhibition of tubulin polymerization” value in the data set with Bovine brain tubulin was “completely inhibited”. Turning to “(2-(3, 4-Dimethoxyphenyl)-1-(phenylsulfonyl)-1H-imidazol-4-yl)(3,4,5-trimethoxyphenyl)methanone [4ha]”, in data set [1], the IC50 is 268 nM. On the same count and under the same terms, next, `O=S(=O)(c1ccccc1)n1ccnc1-c1ccc(OCc2ccccc2)cc1` [3j, 2-(4-(Benzyloxy)phenyl)-1-(phenylsulfonyl)-1H-imidazole]: > 10000 nM. With `Cc1ccc(C(=O)c2c[nH]c(-c3ccccc3)n2)cc1` [5ah, (2-Phenyl-1H-imidazol-4-yl)(p-tolyl)methanone], the IC50 in data set [1] was > 10000 nM. With `COc1cc(C(=O)c2c[nH]c(-c3ccc(OCc4ccccc4)cc3)n2)cc(OC)c1OC` [5ja, (2-(4-(Benzyloxy)phenyl)-1H-imidazol-4-yl)(3,4,5-trimethoxyphenyl)methanone], in data set [1], the IC50 worked out at 7300 nM. Still for that read-out and setting: next, `O=[N+]([O-])c1ccc(-c2nccn2S(=O)(=O)c2ccccc2)cc1` [3x, 2-(4-Nitrophenyl)-1-(phenylsulfonyl)-1H -imidazole]: > 10000 nM; `COc1ccc(C(=O)c2c[nH]c(-c3ccccc3)n2)cc1OC` [5ae, (3,4-Dimethoxyphenyl)(2-phenyl-1H-imidazol-4-yl)methanone]: > 10000 nM; “(2-(4-(Benzyloxy)phenyl)-1-(phenylsulfonyl)-1 H-imidazol-4-yl)(4-fluorophenyl) methanone [4jb]”: 61 nM.

For the molecule `COc1ccc(C(=O)n2ccnc2-c2ccccc2)cc1` [5aba, (4-Methoxyphenyl)(2-phenyl-1H-imidazol-1-yl) methanone], the IC50 in data set [1] was > 10000 nM.

In the case of `COc1cc(C(=O)c2c[nH]c(-c3ccc(C(F)(F)F)cc3)n2)cc(OC)c1OC` [5la, (2-(4-(Trifluoromethyl)phenyl)-1H-imidazol-4-yl)(3,4,5-trimethoxyphenyl)methanone], the “fold decrease of activity compared with compound 5da” value in data set [1] (from average IC50 values) came to 12 fold. The IC50 in data set [1] turned out to be 193 nM. Take `COc1cc(C(=O)n2ccnc2-c2ccccc2)cc(OC)c1OC` [5aaa, (2-Phenyl-1H-imidazol-1-yl)(3,4,5-trimethoxyphenyl) methanone]: the IC50 in data set [1] was > 10000 nM.

Take `Cc1ccc(-c2nc(C(=O)c3ccc(F)cc3)c[nH]2)cc1` [5db-HCl, (4-Fluorophenyl)(2-(p-tolyl)-1H-imidazol-4-yl)methanone HCl salt]: the IC50 in data set [1] stood at 172 nM. On the same count and under the same terms, for `COc1cccc(C(=O)c2c[nH]c(-c3ccccc3)n2)c1` [5ac, (3-Methoxyphenyl)(2-phenyl-1H-imidazol-4-yl)methanone] the value was > 10000 nM. In the case of “(4-Fluorophenyl)(2-(4-methoxyphenyl)-1-(phenylsulfonyl)-1H-imidazol-4-yl) methanone [4cb]”, the figures for the IC50 (in data set [1]; in the data set with MDA-MB-435) were 43 nM and 38 ± 3 nM, respectively. Take “(4-Fluorophenyl)(1-(phenylsulfonyl)-2-(p-tolyl)-1H-imidazol-4-yl) methanone [4db]”: the IC50 in data set [1] came to 111 nM. On to `Cc1cccc(C(=O)c2c[nH]c(-c3ccccc3)n2)c1` [5ai, (2-Phenyl-1H-imidazol-4-yl)(m-tolyl)methanone], for which the IC50 in data set [1] was > 10000 nM. Same read-out and setting: for `O=C(c1cccc(F)c1)c1c[nH]c(-c2ccccc2)n1` [5ag, (3-Fluorophenyl)(2-phenyl-1H-imidazol-4-yl)methanone] the value was > 10000 nM; for `O=S(=O)(c1ccccc1)n1ccnc1-c1ccccc1` [3a, 2-Phenyl-1-(phenylsulfonyl)-1H-imidazole], > 10000 nM; for `COc1ccc(-c2nc(C(=O)c3cc(OC)c(OC)c(OC)c3)c[nH]2)cc1OC` [5ha, (2-(3,4-Dimethoxyphenyl)-1H-imidazol-4-yl)(3,4,5-trimethoxyphenyl)methanone], 330 nM. The same measure, in the same setting: for “(4-Fluorophenyl)(2-(2-(trifluoromethyl)phenyl)-1H-imidazol-4-yl)methanone [5ib]” the value was > 10000 nM. On to `COc1cc(C(=O)c2c[nH]c(-c3ccc(N(C)C)cc3)n2)cc(OC)c1OC` [5ga, (2-(4-(Dimethylamino)phenyl)-1H-imidazol-4-yl)(3,4,5-trimethoxyphenyl)methanone], for which the IC50 in data set [1] was 131 nM. Further, the entries for the “aqueous solubility, times greater than SMART-1” value in data set [2] (buffer pH7.0) and in data set [2] (water) were “about 50 times” and ~10 times, respectively. Take `CN(C)/N=N/c1[nH]cnc1C(N)=O` [DTIC, dacarbazine, reference compound]: in data set [3], the weight loss result is “No significant weight loss”. For the molecule `COc1cc(C(=O)c2c[nH]c(-c3cc(OC)c(OC)c(OC)c3)n2)cc(OC)c1OC` [5ea, (3,4,5-Trimethoxyphenyl)(2-(3,4,5-trimethoxyphenyl)-1H-imidazol-4-yl)methanone], the IC50 in data set [1] is > 10000 nM.

Turning to `COc1ccc(C(=O)c2c[nH]c(-c3ccccc3)n2)cc1` [5ab, (4-Methoxyphenyl)(2-phenyl-1 H-imidazol-4-yl)methanone], the IC50 in data set [1] is > 10000 nM.

As for `COc1ccc(-c2nc(C(=O)c3ccc(F)cc3)c[nH]2)cc1` [5cb, (4-Fluorophenyl)(2-(4-methoxyphenyl)-1H-imidazol-4-yl)methanone], the weight loss result in data set [3] was “No significant weight loss”.

Regarding “(2-(4-Chlorophenyl)-1-(phenylsulfonyl)-1H-imidazol-4-yl)(4-fluorophenyl)methanone [4fb]”, the IC50 in the data set with MDA-MB-435 worked out at 50 ± 6 nM.

In the case of “(2-(4-(Dimethylamino)phenyl)-1-(phenylsulfonyl)-1H-imidazol-4-yl)(4-fluorophenyl)methanone [4gb]”, the IC50 in data set [1] was 87 nM.
